Data published in paper PMC10003159, “Transcytosable Peptide-Paclitaxel Prodrug Nanoparticle for Targeted Treatment of Triple-Negative Breast Cancer” (International Journal of Molecular Sciences, 2023).
Where a SMILES comes first, the peptide text is derived from it. Where no end group is shown, it is not given here. The star is where a group is joined. X1 = CC(=O)O[C@H]1C(=O)[C@@]2(C)[C@H]([C@H](OC(=O)c3ccccc3)[C@]3(O)C[C@H](OC(=O)[C@H](OC(=O)CCC(=O)NCCN4C(=O)CC(*)C4=O)[C@@H](NC(=O)c4ccccc4)c4ccccc4)C(C)=C1C3(C)C)[C@]1(OC(C)=O)CO[C@@H]1C[C@@H]2O

B1: TAR peptide (peptide)
peptide: CRKKRRQRRRATWLPPR
notes: also called fused peptide TAR; bifunctional fusion peptide of TAT and A7R; source: synthetic peptide (China Peptide Co., Ltd.)

What was measured:
EA.hy926 cells = assay: Cytotoxicity against normal cells; assay type: cell-based; details: Figure S5, n = 3
4T1-mCherry-Luc tumor = assay: In vivo antitumor efficacy, subcutaneous TNBC model; set-up: species or system mice; details: tail vein every two days, 16 d, n = 7
Description: Healthy female BALB/c mice (18–20 g) were purchased from Shandong University Laboratory Animal Center. Mice were housed in a pathogen-free environment under conditions of 25 ± 2 °C, 50 ± 5% relative humidity, and 12-h light/dark cycles. They were provided with food and water ad libitum. All animal experiment protocols were approved by the Ethics Committee of School of Pharmaceutical Sciences, Shandong University (22017) and implemented according to the regulations of the Shandong Council on Animal Care. To establish the mice TNBC model, 1.0 × 10^6 4T1-mCherry-Luc cells were subcutaneously injected into the left forelimb armpit of mice. […] solution was injected into mice through the abdominal and reacted with 4T1-mCherry-Luc cells to produce bioluminescence. Then, the fluorescence signals were observed and counted by an IVIS Spectrum imaging system (IVIS Kinetic).
Four days after tumor cell implantation, mice were randomly divided into four groups (n = 7). Seven mice in each group, a total of twenty-eight mice were used. Then, saline, TAR peptide (10.6 mg/kg), PTX (4 mg/kg), and PTX-SM-TAR NPs (15.6 mg/kg) were injected through the tail vein every two days. Tumor size and body weight were measured every 4 d. After 16 d of treatment, mice were sacrificed and tumors were removed, weighed, and further analyzed.

[1] = test system: 4T1-mCherry-Luc 3D tumor spheroids; assay: Penetration in 3D tumor spheroids; assay type: cell-based; details: 4 h incubation, LSCM, scanned at 10 μm interval
Description: After adding 150–200 μL of 2% agarose solution to each well, the 48-well plate was placed on the ultra-clean bench under UV irradiation for 30 min before solidification. The 4T1-mCherry-Luc cells were planted into the plate at the density of 4 × 10^4 cells per well and cultured in the incubator for one week. After the cells aggregated into spherical shapes, tumor spheroids were transferred to confocal dishes and incubated with PTX-SM-TAR/C6 NPs and coumarin-6 solution for 2 and 4 h. The tumor spheroids were washed with PBS, fixed with 4% paraformaldehyde for 30 min, and observed with LSCM.

4T1-mCherry-Luc cells = assay: Wound healing migration assay; assay type: cell-based; details: 24 h, mean ± SEM, n = 3
Description: The effect of PTX-SM-TAR NPs and PTX on 4T1-mCherry-Luc cell migration was evaluated with wound-healing assay. 4T1-mCherry-Luc cells were seeded in 6-well plates at a density of 3 × 10^5 cells per well. After overnight culture, the cells were wounded linearly by a 200 µL pipette tip. […] Images of 0 and 24 h were captured by an inverted microscope.

Neuropilin 1 (NRP-1) = Neuropilin 1 (NRP-1) (UniProt O14786 22-923, The paper says only 'purified NRP-1 protein', immobilized on a CM5 chip. Species, construct and supplier are not printed. Human ectodomain (signal peptide removed, extracellular 22-856) is taken by co); assay: SPR; Biacore T200; purified NRP-1 immobilised on a CM5 chip; gradient-diluted TAR peptide flowed over; HBS-EP running buffer; details: both partners purified
Neuropilin 1 (NRP-1), sequence (O14786 22-923): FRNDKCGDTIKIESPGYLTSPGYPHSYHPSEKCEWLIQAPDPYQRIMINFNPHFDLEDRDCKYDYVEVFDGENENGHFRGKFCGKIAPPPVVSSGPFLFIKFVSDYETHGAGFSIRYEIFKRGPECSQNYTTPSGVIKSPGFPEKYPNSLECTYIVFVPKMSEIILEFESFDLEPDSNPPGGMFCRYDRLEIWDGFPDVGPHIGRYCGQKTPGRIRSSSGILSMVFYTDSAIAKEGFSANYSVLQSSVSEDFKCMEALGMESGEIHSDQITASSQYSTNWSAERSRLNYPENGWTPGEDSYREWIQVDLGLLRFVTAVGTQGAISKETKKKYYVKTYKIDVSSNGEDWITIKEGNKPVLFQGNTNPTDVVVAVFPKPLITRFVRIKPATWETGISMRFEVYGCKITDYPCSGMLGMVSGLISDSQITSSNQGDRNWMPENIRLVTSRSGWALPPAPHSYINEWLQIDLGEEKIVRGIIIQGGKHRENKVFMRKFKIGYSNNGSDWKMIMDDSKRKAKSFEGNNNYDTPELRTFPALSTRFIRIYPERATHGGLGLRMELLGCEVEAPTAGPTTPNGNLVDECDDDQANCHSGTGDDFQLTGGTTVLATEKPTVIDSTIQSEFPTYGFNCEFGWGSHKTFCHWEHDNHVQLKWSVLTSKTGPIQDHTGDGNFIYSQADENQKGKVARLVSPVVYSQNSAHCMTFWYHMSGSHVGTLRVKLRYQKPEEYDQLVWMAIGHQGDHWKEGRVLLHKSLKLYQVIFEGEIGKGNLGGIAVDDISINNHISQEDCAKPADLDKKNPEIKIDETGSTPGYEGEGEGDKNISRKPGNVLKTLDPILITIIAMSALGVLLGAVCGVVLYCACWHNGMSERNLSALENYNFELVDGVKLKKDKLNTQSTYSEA

Molecule	toxicity to normal cells (EA.hy926 cells)	body weight of mice during the experiment (4T1-mCherry-Luc tumor)	also measured
CC(=O)O[C@H]1C(=O)[C@@]2(C)[C@H]([C@H](OC(=O)c3ccccc3)[C@]3(O)C[C@H](OC(=O)[C@H](OC(=O)CCC(=O)NCCN4C(=O)CC(SC[C@H](N)C(=O)N[C@@H](CCCNC(=N)N)C(=O)N[C@@H](CCCCN)C(=O)N[C@@H](CCCCN)C(=O)N[C@@H](CCCNC(=N)N)C(=O)N[C@@H](CCCNC(=N)N)C(=O)N[C@@H](CCC(N)=O)C(=O)N[C@@H](CCCNC(=N)N)C(=O)N[C@@H](CCCNC(=N)N)C(=O)N[C@@H](CCCNC(=N)N)C(=O)N[C@@H](C)C(=O)N[C@H](C(=O)N[C@@H](Cc5c[nH]c6ccccc56)C(=O)N[C@@H](CC(C)C)C(=O)N5CCC[C@H]5C(=O)N5CCC[C@H]5C(=O)N[C@@H](CCCNC(=N)N)C(=O)O)[C@@H](C)O)C4=O)[C@@H](NC(=O)c4ccccc4)c4ccccc4)C(C)=C1C3(C)C)[C@]1(OC(C)=O)CO[C@@H]1C[C@@H]2O (stereo partly shown) [PTX-SM-TAR NPs] (H-C(X1)RKKRRQRRRATWLPPR-OH)	same trend as the PTX	remained stable	
CCN(CC)c1ccc2cc(-c3nc4ccccc4s3)c(=O)oc2c1 [coumarin-6]			fluorescence distribution in tumor spheroids along Z-axis [1]: gradually disappeared after the Z-axis exceeded 60 μm
CC(=O)O[C@H]1C(=O)[C@@]2(C)[C@H]([C@H](OC(=O)c3ccccc3)[C@]3(O)C[C@H](OC(=O)[C@H](O)[C@@H](NC(=O)c4ccccc4)c4ccccc4)C(C)=C1C3(C)C)[C@]1(OC(C)=O)CO[C@@H]1C[C@@H]2O [PTX, paclitaxel]	slight toxicity to normal cells in the low-concentration	remained stable	migration rate (4T1-mCherry-Luc cells; 10 nM): 32.53 ± 1.43%; migration rate (4T1-mCherry-Luc cells; 100 nM): 18.96 ± 2.76%; tumor inhibition rate (4T1-mCherry-Luc tumor; TAR 10.6 mg/kg, PTX 4 mg/kg, PTX-SM-TAR NPs 15.6 mg/kg, tumor weight): 28.47%
CRKKRRQRRRATWLPPR [TAR]		remained stable	
B1			Kd (Neuropilin 1 (NRP-1)): 34 nM
